From the SangsterLogP compilation

SMILES | logP
Brc1cc2ccc3cccc4ccc(c1)c2c34 | 5.8
O=Cc1c2ccccc2cc2ccccc12 | 3.77
O=C1c2ccccc2C(=O)c2ccccc21 | 3.28
O=Cc1ccc2ccc3cccc4ccc1c2c34 | 4.23
Brc1c2ccccc2c(Br)c2ccccc12 | 6.29
Brc1cc2cccc3ccc4cccc1c4c32 | 5.84
NC(=O)c1c2ccccc2cc2ccccc12 | 2.23
CC(=O)c1cc2ccc3cccc4ccc(c1)c2c34 | 4.29
COc1c2ccccc2cc2ccccc12 | 4.36
N#Cc1c2ccccc2cc2ccccc12 | 3.98
COC(=O)c1c2ccccc2cc2ccccc12 | 3.83
Brc1c2ccccc2cc2ccccc12 | 5.37

The next lines start with the values.

logP | SMILES
4.16 | CC(=O)c1cc2cccc3ccc4cccc1c4c32
5.81 | Brc1ccc2ccc3cccc4ccc1c2c34
5.27 | Clc1c2ccccc2cc2ccccc12
6.85 | Brc1cc(Br)c2ccc3cccc4ccc1c2c43
4.18 | CC(=O)c1ccc2ccc3cccc4ccc1c2c34
4.85 | COC(=O)c1cc2ccc3cccc4ccc(c1)c2c34
4.73 | COC(=O)c1ccc2ccc3cccc4ccc1c2c34
6.69 | Brc1ccc2ccc3c(Br)ccc4ccc1c2c43
6.73 | Brc1ccc2ccc3ccc(Br)c4ccc1c2c34
3.6 | CC(=O)c1c2ccccc2cc2ccccc12
